The text below walks through data of patent US6448034B1, “Production of variant nisin” (priority 1994, dated 2002).

The subject of assay [1] is nisin sensitive L. lactis strain MG1614. Particulars: colony overlay assay; plasmid complementation; cited from earlier work.
For assay [2], the system named is Lactobacillus helveticus CH-1. Description: Plate diffusion bioassay of cell-free extracts / culture supernatants. The assay is classed as cell-based. As for the experimental part:
150 μl samples of cell free extracts from strains: 4, FI5876; 5, FI7990; 6, FI8070; 7, FI8198; 8, FI8199 were loaded into wells bored in MRS agar seeded with the indicator strains Lactobacillus helveticus CH-1. Plates were incubated overnight at 42° C. Standards included on the assay plate are: 1,50; 2,100; 3,200; 9,300; 10,400 U/ml.
(§1) Nisin activity in Lactococcal strains was assayed by both deferred and direct means. Plate diffusion bioassays were performed as previously described (Dodd et al (1992) Appl. Environ. Microbiol. 58, 3683-3693. Colonies growing on the surface of a GM17 plate were directly assayed by inverting over chloroform for 12 minutes and overlaying with agar seeded with the nisin sensitive L. lactis strain MG1614. Plates were incubated overnight and zone sizes around colonies compared with those of controls. Nisin immunity was determined by streaking cultures on a series of GM17 agar plates containing an increasing concentration of nisin and assessing the degree of growth at the different nisin levels. Control cultures (FI5876, positive) and MG1614 (negative) were included on each plate.
This corresponds to an increase of approximately 50% of nisin A levels, under the conditions used here (Table 1). This higher level of production was not found in the extracts of FI8199, producing the double mutant nisin A/Dha5A,Dha33A. […] In all cases the yield for a particular nisin variant was higher when using this gene replacement strategy than when the equivalent plasmid-encoded gene was employed in a plasmid complementation system (Table 3, Dodd et al (1992) (1993) supra).

For assay [3], the system named is sensitive L. Lactis strain MG1614. Put plainly: Minimum inhibitory concentration (MIC). The assay is classed as cell-based. Particulars: Table 5.
Assay [4] relates to FI7847 [nisA-(fs)]. Description: Induction by nisin / nisin variants as inducing agent. Format: cell-based, L. lactis. Particulars: strain FI7847. Further details: Induction: unit not given here. As for the experimental part: A particularly preferred embodiment of the third aspect of the invention is wherein the cells are cultured in the presence of nisA nisin or a variant nisin which can induce nisin expression. […] By adding sub-inhibitory concentrations of nisin to the growth medium, during fermentation, higher levels of the variant nisin are produced. Any variants that are less efficient as inducing agents benefit from the inclusion of nisin in the growth medium (ie a nisin induction step in the purification procedure). The amount of induction varies depending on the initial induction capacity of any particular variant (with I30W nisin A production more than doubled as a result of induction). Induction may be routinely included in the method as a means of maximising production levels. Any concerns about contamination with the wild type molecule are minimal as the nisin concentration required for induction is negligible compared to the amount of nisin variant being purified. Conveniently, the nisA nisin is a minimum amount that provides maximal induction of nisin production. This amount can be determined empirically by a person skilled in the art. Suitable nisA nisin concentrations for induction in this embodiment are from 1 nM to 500 nM, preferably 10 nM to 250 nM, more preferably 50 nM to 150 nM, most preferably 100 nM.
In some circumstances it is desirable to add nisA nisin as an inducer.

The subject of assay [5] is sensitive indicator strains. Particulars: work described in WO 93/20213; cited from earlier work.
The test system of assay [6] is Lactobacillus helveticus CH-1. The conditions noted are these: plate diffusion bioassay; plasmid-encoded nisA gene complementing nisA deficiency in host strain FI7332; cited from earlier work.
The test system of a further assay is FI8003 (nisA). Put plainly: Nisin immunity on GM17 agar plates with increasing nisin. Format: cell-based, L. lactis. The conditions noted are these: nisin level tolerated by strain FI8003 nisA (BamHI site in promoter). As for the experimental part:
as §1
A possible explanation for the difference in nisin sensitivity of these two Nis^− strains came from gene replacement studies involving the vector pFI740 (FIG. 2d). […] The only difference between the two sequences involved is that pFI740 has an additional BamHI site incorporated 80 bp upstream of the ATG start codon of nisA, and a BglII site immediately downstream of the coding region (FIG. 4). […] A single base pair change introduced as a result of engineering the BamHI site has the effect of converting the -35 sequence from CTGATT to CCGATT (FIG. 4).

The subject of the next assay is FI7893 (nisA). The assay is described as above. Format: cell-based, L. lactis. Particulars: nisin level tolerated by strain FI7893 nisA. The procedure: as §1
The next assay deals with MG1614. Described as above. Format: cell-based, L. lactis. Particulars: nisin level tolerated by strain MG1614. The procedure:
as §1

Another assay has as its system FI8198 (nisA/S33A). Described as above. The assay is classed as cell-based, L. lactis. Particulars: nisin level tolerated by strain FI8198 nisA/S33A. As for the experimental part:
as §1

A further assay has as its system FI8070 (nisA/S5A). Described as above. The assay is classed as cell-based, L. lactis. Particulars: nisin level tolerated by strain FI8070 nisA/S5A. As for the experimental part:
as §1

For the next assay, the system named is FI8199 (nisA/S5A,S33A). The description is as above. The assay is classed as cell-based, L. lactis. Particulars: nisin level tolerated by strain FI8199 nisA/S5A. As for the experimental part: as §1
The subject of another assay is FI5876. The description is as above. The assay is classed as cell-based, L. lactis. The procedure:
as §1
(§2) The effect of disruption of the nisA gene on immunity of the host strain to nisin has been described previously (Dodd et al (1992) supra). […] The nisA deleted strain FI7990 was sensitive to nisin at a concentration of between 250 and 500 U/ml compared to the parent strain, FI5876, which will continue growing in the presence of nisin to over 1000 U/ml.

The test system of another assay is FI7990 (ΔnisA). Described as above. The conditions noted are these: nisin level tolerated by strain FI7990 ΔnisA. Format: cell-based, L. lactis. As for the experimental part: as §1, §2
For assay [7], the system named is FI7847 [nisA-(fs)]. The assay is described as above. Format: cell-based, L. lactis. Particulars: nisin level tolerated by strain FI7847 nisA-(fs). As for the experimental part:
as §1, §2

Values after ≈ are worked out from the molar mass of the structure shown. Marks after values point to notes of the source that are not given here.

For `C/C=C(\NC(=O)[C@@H](N)[C@@H](C)CC)C(=O)N[C@@H]1CSC[C@@H](C(=O)N[C@H]2C(=O)N3CCC[C@H]3C(=O)NCC(=O)N[C@H](C(=O)N[C@@H](CCCCN)C(=O)N[C@H]3C(=O)NCC(=O)N[C@@H](C)C(=O)N[C@@H](CC(C)C)C(=O)N[C@@H](CCSC)C(=O)NCC(=O)N[C@H](C(=O)N[C@@H](CC(N)=O)C(=O)N[C@@H](CCSC)C(=O)N[C@@H](CCCCN)C(=O)N[C@H]4C(=O)N[C@@H](C)C(=O)N[C@H]5C(=O)N[C@@H](CS[C@H]4C)C(=O)N[C@@H](Cc4c[nH]cn4)C(=O)N[C@H](C(=O)N[C@@H](CO)C(=O)N[C@H](C(=O)N[C@@H](Cc4c[nH]cn4)C(=O)N[C@H](C(=O)N[C@@H](C)C(=O)N[C@@H](CCCCN)C(=O)O)C(C)C)[C@@H](C)CC)CS[C@H]5C)CS[C@H]3C)CS[C@H]2C)NC(=O)[C@H](CC(C)C)NC(=O)[C@H](C)NC(=O)[C@H]([C@@H](C)CC)NC1=O` [nisin A (Dha5A, Dha33A)], the “antimicrobial activity, plasmid-encoded gene complementing nisA deficiency” value in assay [1] is on record as “only detected in the more sensitive colony overlay assay”. The “Activity (% of wt)” value in assay [2] (antimicrobial activity in culture supernatants of gene-replaced strains, plate diffusion bioassays) is 100 % of wt. The “zone of inhibition / inhibitory effect compared with parent strain FI5876” value in assay [2] (cell extracts of gene-replaced strains, plate diffusion bioassay) was “equivalent that of nisin A containing the single mutation and also the wild type molecule”. In addition, the “nisin activity (% of wild type), gene replacement” value in assay [2] (plate diffusion bioassay, functional nisA gene incorporated in the chromosome of FI7990 in place of nisA deletion) was 100 % of wild type. Further, the MIC (in general, the lowest concentration that inhibits growth of the organism) in assay [3] is 1000 mg/L (≈ 298 µM). Besides, the Induction in the assay with FI7847 [nisA-(fs)] [4] (inducing agent at 100 ng ml^−1) was 34; with FI7847 [nisA-(fs)] [4] (inducing agent at 1 mg ml^−1), 106. Further, the “antimicrobial activity against sensitive indicator strains” value in assay [5] is “retained their antimicrobial activity”. Also, the “nisin activity (% of wild type), complementation” value in [6] is reported as <1^d % of wild type.

As for nisin, the Immunity with FI8003 (nisA) was 0.25-0.5 U/ml × 10^3; with FI7893 (nisA), over 1 U/ml × 10^3; with MG1614, 0.01 U/ml × 10^3; in the assay with FI8198 (nisA/S33A), over 1 U/ml × 10^3; in the assay with FI8070 (nisA/S5A), over 1 U/ml × 10^3; with FI8199 (nisA/S5A,S33A) it was over 1 U/ml × 10^3. Moreover, the values for the Immunity in the assay on FI5876 (nisin level tolerated by strain FI5876 (wild type)), in the assay with FI7990 (ΔnisA) and with FI7847 [nisA-(fs)] [7] were over 1 U/ml × 10^3, 0.25-0.5 U/ml × 10^3 and 0.5-0.75 U/ml × 10^3, respectively. Also, the “nisin concentration at which the strain continues growing” value in the assay with FI5876 (parent strain FI5876) was “over 1000 U/ml”.
